Patent US20240158495A1, “Antibody Agents Directed Against Lymphocyte Activation Gene-3 (LAG-3) and Uses Thereof” (Tesaro, Inc., priority 2017, published 2024)

Experiments:
[1] = test system: PARP activity; conditions: various cell lines, hydrogen peroxide, cited from earlier work
[2] = target: T1, Human LAG-3 (Homo sapiens, UniProt P18627); assay: SPR binding to recombinant soluble human LAG-3
T1 construct: either recombinant soluble or cell-surface-expressed human and cynomolgus monkey (cyno) LAG-3
T1 sequence (P18627 23-450 limits assumed): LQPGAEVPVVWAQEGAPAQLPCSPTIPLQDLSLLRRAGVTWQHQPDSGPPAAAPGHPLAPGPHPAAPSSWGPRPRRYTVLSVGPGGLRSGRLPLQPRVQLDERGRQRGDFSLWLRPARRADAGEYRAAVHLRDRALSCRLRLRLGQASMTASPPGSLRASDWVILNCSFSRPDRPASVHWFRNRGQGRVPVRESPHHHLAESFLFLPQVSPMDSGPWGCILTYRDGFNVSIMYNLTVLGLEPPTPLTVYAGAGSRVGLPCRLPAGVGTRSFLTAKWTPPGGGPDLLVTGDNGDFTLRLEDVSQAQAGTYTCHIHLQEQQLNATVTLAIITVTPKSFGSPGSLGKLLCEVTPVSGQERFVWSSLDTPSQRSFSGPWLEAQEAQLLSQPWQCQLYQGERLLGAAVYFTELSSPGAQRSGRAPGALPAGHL

[3] = test system: Cyno LAG-3; assay: SPR binding to recombinant soluble cyno LAG-3; parameters: species or system cynomolgus monkey
[4] = target: T2, LAG-3/MHC-II binding (Homo sapiens, UniProt P18627); assay: LAG-3 reporter gene assay (LAG-3 Jurkat cells / MHC class II Raji cells, NFAT readout); type: cell-based; conditions: FIG. 3C
T2 construct: expressed in transfected cells; host or cells: Jurkat cells (NFAT reporter)
T2 sequence (P18627 23-525): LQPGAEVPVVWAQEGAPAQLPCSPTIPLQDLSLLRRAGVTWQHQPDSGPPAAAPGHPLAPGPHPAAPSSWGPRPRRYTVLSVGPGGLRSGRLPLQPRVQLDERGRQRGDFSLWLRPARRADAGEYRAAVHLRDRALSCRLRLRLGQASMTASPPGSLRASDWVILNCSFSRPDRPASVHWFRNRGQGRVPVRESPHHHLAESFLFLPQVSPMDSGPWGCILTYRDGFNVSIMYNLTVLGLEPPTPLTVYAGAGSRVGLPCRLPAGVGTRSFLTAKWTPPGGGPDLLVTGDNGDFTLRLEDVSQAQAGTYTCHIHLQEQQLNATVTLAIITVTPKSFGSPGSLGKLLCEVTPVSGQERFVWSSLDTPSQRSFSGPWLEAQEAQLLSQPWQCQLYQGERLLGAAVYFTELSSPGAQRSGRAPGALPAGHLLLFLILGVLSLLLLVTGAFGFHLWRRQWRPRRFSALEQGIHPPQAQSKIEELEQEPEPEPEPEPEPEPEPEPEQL
Excerpt: Specifically, this example uses Raji cells, which express high levels of endogenous MHC class II.

[5] = test system: primary human CD4+ T cells; assay: Mixed lymphocyte reaction (MLR) assay, IL-2 secretion; type: cell-based; conditions: 48 hours, antibody alone, FIG. 4
Protocol: This example describes the ability of an exemplary anti-LAG-3 antibody agent to activate primary human T cells in vitro. […] In this MLR assay, primary human CD4+ T cells were mixed with monocyte-derived dendritic cells from a different donor. In these studies, dendritic cells and allogeneic CD4+ T cells were incubated in the presence of an exemplary anti-LAG-3 antibody agent or isotype control for 48 hours, and activation of T cells was determined by measuring the level of interleukin-2 (IL-2) secretion.

[6] = test system: human PBMCs; assay: IL-2 release from SEB-stimulated human PBMCs; type: cell-based; conditions: 100 ng/mL SEB for 3 days, 5 donors, FIG. 5
Protocol: Specifically human PBMCs (from 5 donors) were stimulated with 100 ng/mL SEB for 3 days and then IL-2 induction was assessed.

[7] = target: T3, LAG-3 (Homo sapiens, UniProt P18627); assay: Receptor occupancy on patient T cells (direct binding assay, flow cytometry); type: in vivo; conditions: patients, early time points, FIG. 10C
T3 construct: PBMCs were isolated from fresh whole blood samples from patients; endogenous in cells; host or cells: T cells in PBMCs from patient whole blood
T3 sequence (P18627 23-525): T2 sequence (P18627 23-525)
Excerpt: The saturation binding aliquot was run in parallel as a control to assess the range of the assay.

NC(=O)c1cccc2cn(-c3ccc([C@@H]4CCCNC4)cc3)nc12 [Niraparib, (3S)-3-[4-{7-(aminocarbonyl)-2H-indazol-2-yl}phenyl]piperidine]
IC90 ([1]; read-out: inhibitory concentration at 90% of control (IC90)): ~0.05 µM | IC50 [1]: ~0.004 µM

TSR-033: anti-LAG-3 antibody agent comprising a heavy chain of SEQ ID NO: 21 and a light chain of SEQ ID NO: 22
Kassoc [2]: 1.3 × 10^5 (ms)^−1 | Kdissoc [2]: 0.00013 s⁻¹ | Kassoc [3]: 1.1 × 10^5 (ms)^−1 | Kdissoc [3]: 0.00026 s⁻¹ | disruption of binding of LAG-3 on Jurkat cells to MHC Class II expressing Raji cells [4]: potent antagonist | IL-2 production [5]: dose-dependently increased IL-2 production | IL-2 production [6]: dose-dependently increased IL-2 production | receptor occupancy (RO) ([7]; 80 mg dose): approximately 50% | receptor occupancy (RO) ([7]; 240 mg dose): approaches saturation
